Assays:
[1] = system: AMP-evolved E. coli lines; assay: Cross-resistance / collateral sensitivity: relative MIC change of 38 laboratory-evolved AMP-resistant lines vs parental strain; assay type: cell-based, Escherichia coli; conditions: measured here
Description: Here, we extended this dataset by measuring susceptibility changes of the same evolved lines to four additional AMPs using identical protocols to represent AMPs from all four clusters (Supplementary Fig. 15a, see also Methods). Overall, the resulting dataset of susceptibility profiles provides a comprehensive map of cross-resistance and collateral sensitivity between AMPs representing various modes of action.
To characterize the cross-resistance of the 38 E. coli lineages we obtained relative MIC changes that are, the MIC values of the evolved lines compared to these of the parental strain, from two data sources. First, we used already measured relative MIC changes from Spohn et al. Supplementary data 4[20]. […] Second, we extended this dataset by measuring the relative MIC changes of the same evolved lines to four additional AMPs using identical protocol. […] In this way, AMPs from each cluster were represented in the dataset.
Supplementary Figure 15. […] Relative change in MIC was determined for each evolved line by comparing its MIC to the ancestral cell line (control). […] CAP18-adaped lines were not included in the analysis because CAP18 is known as a membrane-targeting AMP in the literature. c, Cross-resistance interactions are enriched between membrane-targeting AMPs that are in the same chemical-genetic clusters (i.e. AMP pairs within C1 and within C2 clusters) (Significant difference: ** P = 0.0082 from two-sided Fisher’s exact test, n = 61 and 62 for within cluster and between clusters, respectively). […] Source data are provided as a Source Data file.

[2] = system: E. coli BW25113 ΔmlaD; assay: MIC, serial broth dilution, mlaD knockout strain vs wild type; assay type: cell-based, Escherichia coli
[3] = mlaD deletion strain vs control E. coli BW25113, average of 3 replicates

Sequence	Relative change in MIC (MIC of the AMP-adpated line / MIC of the ancestral strain) ([1]; AMP-adapted line CAP18_2)	Relative change in MIC (MIC of the AMP-adpated line / MIC of the ancestral strain) ([1]; AMP-adapted line CAP18_5)	Relative change in MIC (MIC of the AMP-adpated line / MIC of the ancestral strain) ([1]; AMP-adapted line CAP18_6)	Relative change in MIC (MIC of the AMP-adpated line / MIC of the ancestral strain) ([1]; AMP-adapted line CAP18_8)	Relative change in MIC (MIC of the AMP-adpated line / MIC of the ancestral strain) ([1]; AMP-adapted line CAP18_10)	Relative change in MIC (MIC of the AMP-adpated line / MIC of the ancestral strain) ([1]; AMP-adapted line HBD3_3)	Relative change in MIC (MIC of the AMP-adpated line / MIC of the ancestral strain) ([1]; AMP-adapted line HBD3_6)	Relative change in MIC (MIC of the AMP-adpated line / MIC of the ancestral strain) ([1]; AMP-adapted line HBD3_8)	Relative change in MIC (MIC of the AMP-adpated line / MIC of the ancestral strain) ([1]; AMP-adapted line HBD3_10)	Relative change in MIC (MIC of the AMP-adpated line / MIC of the ancestral strain) ([1]; AMP-adapted line LL37_1)	Relative change in MIC (MIC of the AMP-adpated line / MIC of the ancestral strain) ([1]; AMP-adapted line LL37_3)	Relative change in MIC (MIC of the AMP-adpated line / MIC of the ancestral strain) ([1]; AMP-adapted line LL37_6)	Relative change in MIC (MIC of the AMP-adpated line / MIC of the ancestral strain) ([1]; AMP-adapted line LL37_7)	Relative change in MIC (MIC of the AMP-adpated line / MIC of the ancestral strain) ([1]; AMP-adapted line LL37_10)	Relative change in MIC (MIC of the AMP-adpated line / MIC of the ancestral strain) ([1]; AMP-adapted line PR39_1)	Relative change in MIC (MIC of the AMP-adpated line / MIC of the ancestral strain) ([1]; AMP-adapted line PR39_2)	Relative change in MIC (MIC of the AMP-adpated line / MIC of the ancestral strain) ([1]; AMP-adapted line PR39_5)	Relative change in MIC (MIC of the AMP-adpated line / MIC of the ancestral strain) ([1]; AMP-adapted line PR39_7)	Relative change in MIC (MIC of the AMP-adpated line / MIC of the ancestral strain) ([1]; AMP-adapted line PR39_10)	Relative change in MIC (MIC of the AMP-adpated line / MIC of the ancestral strain) ([1]; AMP-adapted line PXB_2)	also measured
RFRPPIRRPPIRPPFYPPFRPPIRPPIFPPIRPPFRPPLGPFP [BAC5, Bactenecin 5, antimicrobial peptide from bovine neutrophils; cluster C4]	1	0.915	0.915	1	0.915	1	0.9167	1	1	0.915	1	0.915	1	0.915	>4.30	2.0736	4.3	1.9	2.986	1.32	Relative change in MIC (MIC of the AMP-adpated line / MIC of the ancestral strain) ([1]; AMP-adapted line PEX_1): 1.1; Relative change in MIC (MIC of the AMP-adpated line / MIC of the ancestral strain) ([1]; AMP-adapted line PEX_4): 1.1; Relative change in MIC (MIC of the AMP-adpated line / MIC of the ancestral strain) ([1]; AMP-adapted line PEX_5): 1; Relative change in MIC (MIC of the AMP-adpated line / MIC of the ancestral strain) ([1]; AMP-adapted line PEX_6): 1.1; Relative change in MIC (MIC of the AMP-adpated line / MIC of the ancestral strain) ([1]; AMP-adapted line PEX_7): 1; Relative change in MIC (MIC of the AMP-adpated line / MIC of the ancestral strain) ([1]; AMP-adapted line PROA_2): 1.2; Relative change in MIC (MIC of the AMP-adpated line / MIC of the ancestral strain) ([1]; AMP-adapted line PROA_3): 1; Relative change in MIC (MIC of the AMP-adpated line / MIC of the ancestral strain) ([1]; AMP-adapted line PROA_7): 1.1; Relative change in MIC (MIC of the AMP-adpated line / MIC of the ancestral strain) ([1]; AMP-adapted line PROA_8): 1.1; Relative change in MIC (MIC of the AMP-adpated line / MIC of the ancestral strain) ([1]; AMP-adapted line PROA_9): 1.1; Relative change in MIC (MIC of the AMP-adpated line / MIC of the ancestral strain) ([1]; AMP-adapted line PXB_5): 1.1; Relative change in MIC (MIC of the AMP-adpated line / MIC of the ancestral strain) ([1]; AMP-adapted line PXB_6): 1; Relative change in MIC (MIC of the AMP-adpated line / MIC of the ancestral strain) ([1]; AMP-adapted line PXB_8): 1; Relative change in MIC (MIC of the AMP-adpated line / MIC of the ancestral strain) ([1]; AMP-adapted line PXB_10): 0.915; Average relative change in MIC [2, 3]: 0.67
TSSPPAAVVVRRRRRRRRRRRRRRRRRRR [PROA, Protamine, source herring, purchased from Sigma-Aldrich; cluster C3]	1.2	0.7622	0.7622	1.22	1.44	1.464	0.7639	1.22	1.584	0.7044	0.7622	0.48	1	0.48	2.99	1.2	1.2	1.73	1.44	1.7568	Relative change in MIC (MIC of the AMP-adpated line / MIC of the ancestral strain) ([1]; AMP-adapted line BAC5_3): 1.1; Relative change in MIC (MIC of the AMP-adpated line / MIC of the ancestral strain) ([1]; AMP-adapted line BAC5_5): 1.015; Relative change in MIC (MIC of the AMP-adpated line / MIC of the ancestral strain) ([1]; AMP-adapted line BAC5_7): 1.44; Relative change in MIC (MIC of the AMP-adpated line / MIC of the ancestral strain) ([1]; AMP-adapted line BAC5_10): 1.728; Relative change in MIC (MIC of the AMP-adpated line / MIC of the ancestral strain) ([1]; AMP-adapted line PEX_1): 1.2; Relative change in MIC (MIC of the AMP-adpated line / MIC of the ancestral strain) ([1]; AMP-adapted line PEX_4): 1.728; Relative change in MIC (MIC of the AMP-adpated line / MIC of the ancestral strain) ([1]; AMP-adapted line PEX_5): 0.915; Relative change in MIC (MIC of the AMP-adpated line / MIC of the ancestral strain) ([1]; AMP-adapted line PEX_6): 2.0736; Relative change in MIC (MIC of the AMP-adpated line / MIC of the ancestral strain) ([1]; AMP-adapted line PEX_7): 0.8472; Relative change in MIC (MIC of the AMP-adpated line / MIC of the ancestral strain) ([1]; AMP-adapted line PXB_5): 0.8333; Relative change in MIC (MIC of the AMP-adpated line / MIC of the ancestral strain) ([1]; AMP-adapted line PXB_6): 1; Relative change in MIC (MIC of the AMP-adpated line / MIC of the ancestral strain) ([1]; AMP-adapted line PXB_8): 1; Relative change in MIC (MIC of the AMP-adpated line / MIC of the ancestral strain) ([1]; AMP-adapted line PXB_10): 1.44; Average relative change in MIC [2, 3]: 0.43
GIGKFLKKAKKFGKAFVKILKK [PEX, Pexiganan, synthetic Magainin derivative; disrupts cell membrane; cluster C2]	3.036	>3.6	1.964	2.986	2.488	3.648	2.089	3.578	2.72	1.584	1.32	1.22	2.986	2.093	1.464	1.1	1.1	1.1	1	1.32	Relative change in MIC (MIC of the AMP-adpated line / MIC of the ancestral strain) ([1]; AMP-adapted line BAC5_3): 1; Relative change in MIC (MIC of the AMP-adpated line / MIC of the ancestral strain) ([1]; AMP-adapted line BAC5_5): 1; Relative change in MIC (MIC of the AMP-adpated line / MIC of the ancestral strain) ([1]; AMP-adapted line BAC5_7): 1.1; Relative change in MIC (MIC of the AMP-adpated line / MIC of the ancestral strain) ([1]; AMP-adapted line BAC5_10): 1.1; Relative change in MIC (MIC of the AMP-adpated line / MIC of the ancestral strain) ([1]; AMP-adapted line PROA_2): 1.1; Relative change in MIC (MIC of the AMP-adpated line / MIC of the ancestral strain) ([1]; AMP-adapted line PROA_3): 1.1; Relative change in MIC (MIC of the AMP-adpated line / MIC of the ancestral strain) ([1]; AMP-adapted line PROA_7): 0.915; Relative change in MIC (MIC of the AMP-adpated line / MIC of the ancestral strain) ([1]; AMP-adapted line PROA_8): 1.2; Relative change in MIC (MIC of the AMP-adpated line / MIC of the ancestral strain) ([1]; AMP-adapted line PROA_9): 1; Relative change in MIC (MIC of the AMP-adpated line / MIC of the ancestral strain) ([1]; AMP-adapted line PXB_5): 1.844; Relative change in MIC (MIC of the AMP-adpated line / MIC of the ancestral strain) ([1]; AMP-adapted line PXB_6): 1.6368; Relative change in MIC (MIC of the AMP-adpated line / MIC of the ancestral strain) ([1]; AMP-adapted line PXB_8): 1.844; Relative change in MIC (MIC of the AMP-adpated line / MIC of the ancestral strain) ([1]; AMP-adapted line PXB_10): >3.6; Average relative change in MIC ([2]; mlaD deletion strain relative to control (E. coli BW25113), 3 replicates each, from optical density values of serial dilution plates, AMP in µg ml-1): 1.58

Reference: paper PMC6915728 (Nature Communications, 2019)
